In article PMC10348910, “Epigenetic reprogramming of cell cycle genes by ACK1 promotes breast cancer resistance to CDK4/6 inhibitor” (Oncogene, 2023):

How the values were obtained:
[1] = molecular target: ACK1 (Homo sapiens, UniProt Q07912); assay: biochemical; conditions: 1 uM ATP; read-out: Compound IC50 (M) ACK1
[2] = test system: Palbociclib-resistant HCC-1395; assay: proliferation assay, trypan blue exclusion; format: cell-based; conditions: palbociclib-resistant HCC-1395, 96 h
Description: (§1) A–F Breast cancer cells were treated with either vehicle or (R)-9b for 48 h; cells were harvested and processed for cell cycle analysis using propidium iodide staining, followed by flow cytometry. G BT549 and H MDA-MB-468 cells were treated with varying drug concentrations of palbociclib or (R)-9b for 96 h and the cell viability assessed using trypan blue exclusion method. I BT549, and J MDA-MB-468 cells were treated with 1 µM palbociclib or (R)-9b for 48 h and subjected to cell cycle analysis using propidium iodide staining, followed by flow-cytometry. Palbociclib-resistant MDA-MB-231 (K) and HCC-1395 (L) were generated and treated with varying drug concentrations of palbociclib or (R)-9b for 96 h and the cell viability assessed using trypan blue exclusion method.
(§2) The mid-G1 phase is governed by CDK4 and CDK6, two serine/threonine kinases the catalytic activity of which is modulated by D-type cyclins (D1, D2, and D3). […]
(§3) For proliferation assay, 5 × 10^4 cells were plated in 6-well plate and treated with either vehicle (DMSO) or varying concentrations of (R)-9b or palbociclib in complete media for 96 h and number of viable cells were counted by trypan blue exclusion assay. […] The cells were acquired using the BD FACSCalibur machine (BD Biosciences) and data was analyzed using FlowJo software. […] The data were analyzed using FlowJo software.

[3] = test system: Palbociclib-resistant MDA-MB-231; assay: proliferation assay, trypan blue exclusion; format: cell-based; conditions: palbociclib-resistant MDA-MB-231, 96 h
Description: as §1, §2, §3

[4] = test system: phospho-serine 139-γH2AX; assay: γH2AX immunocytochemistry; format: cell-based; conditions: breast cancer cell lines, 48h
Description: Breast cancer cells were grown over coverslips and treated with vehicle or (R)-9b. The cells were fixed in 2% paraformaldehyde and permeabilized. The cells were stained with phospho-serine 139-γH2AX antibody (Red), phalloidin (green) and DAPI. Fluorescent microscopic images were captured. […]
breaks in breast cancer cell lines
Breast cancer cell lines were treated with either vehicle or (R)-9b for 48h and stained with phospho-serine 139-γH2AX antibody (Red), phalloidin (green) and DAPI. Representative images of fluorescent microscopic analysis are shown.

[5] = plasma protein binding in human plasma
[6] = test system: MDA-MB-468; assay: proliferation assay, trypan blue exclusion; format: cell-based; conditions: MDA-MB-468 (lacking Rb), 96 h
Description: as §1
(§4) For proliferation assay, 5 × 10^4 cells were plated in 6-well plate and treated with either vehicle (DMSO) or varying concentrations of (R)-9b or palbociclib in complete media for 96 h and number of viable cells were counted by trypan blue exclusion assay. Breast cancer cell lines were treated with vehicle or varying concentrations of (R)-9b for 72 h. The cells were harvested, washed 2 times with PBS and incubated with 3 ul of Annexin V-FITC antibody according to the manufacturers protocol (BD Biosciences). Five µl Propidium iodide was used to stain necrotic cells. The cells were acquired using the BD FACSCalibur machine (BD Biosciences) and data was analyzed using FlowJo software. Cell cycle analysis was performed as mentioned earlier. Briefly, vehicle or (R)-9b (48 h) treated cells were harvested by trypsinization, washed 2 times with PBS, and fixed using chilled 70% Ethanol for 1 h, followed by 2 washes with PBS. The cell pellets were treated with 50 µl RNase A (100 µg/ml; Sigma) for 15 min at 37 °C and Propidium Iodide (PI; 50 µg/ml, Sigma) was added to these cells, followed by acquisition using BD FACS Canto-II or FACSCalibur machines. The data were analyzed using FlowJo software.

[7] = test system: BT549; assay: proliferation assay, trypan blue exclusion; format: cell-based; conditions: BT549 (lacking Rb), 96 h
Description: as §1, §4

[8] = test system: CCNB1, CCNB2 and CDC20 protein; assay: immunoblotting of CCNB1, CCNB2 and CDC20; format: cell-based; conditions: breast cancer cell lysates
Excerpt: Fig. 3 ACK1 inhibitor suppresses expression of cell cycle genes. A Cell lysates from vehicle or (R)-9b treated cells were immunoblotted using CCNB1, CCNB2 and CDC20 antibodies. B HCC-1395 and MDA-MB-231 cells were transfected with ACK1 and scrambled siRNAs, followed by qPCR using ACK1 primers, with 18S rRNA as internal control. C siRNA transfected cells were subjected to western blotting using ACK1 antibody, with Actin as loading control. RNA from silenced cells, (D) HCC-1395 and (E) MDA-MB-231 was subjected to qPCR using CCNB1, CCNB2 and CDC20 primers. 18S rRNA was used as housekeeping control. For (A) and (C), representative images of three independent experiments are shown. For (B, D, E), data are represented as the mean ± SEM. *p < 0.05, **p < 0.01, ***p < 0.001, unpaired two-tailed Student’s t test.
Vehicle or (R)-9b (5 µM, overnight in serum free media) treated cells were lysed by sonication in receptor lysis buffer (RLB) and lysates were fractionated by SDS-PAGE, and transferred onto a PVDF membrane (Immobilon). […]

Chain of ACK1 (Q07912 whole entry): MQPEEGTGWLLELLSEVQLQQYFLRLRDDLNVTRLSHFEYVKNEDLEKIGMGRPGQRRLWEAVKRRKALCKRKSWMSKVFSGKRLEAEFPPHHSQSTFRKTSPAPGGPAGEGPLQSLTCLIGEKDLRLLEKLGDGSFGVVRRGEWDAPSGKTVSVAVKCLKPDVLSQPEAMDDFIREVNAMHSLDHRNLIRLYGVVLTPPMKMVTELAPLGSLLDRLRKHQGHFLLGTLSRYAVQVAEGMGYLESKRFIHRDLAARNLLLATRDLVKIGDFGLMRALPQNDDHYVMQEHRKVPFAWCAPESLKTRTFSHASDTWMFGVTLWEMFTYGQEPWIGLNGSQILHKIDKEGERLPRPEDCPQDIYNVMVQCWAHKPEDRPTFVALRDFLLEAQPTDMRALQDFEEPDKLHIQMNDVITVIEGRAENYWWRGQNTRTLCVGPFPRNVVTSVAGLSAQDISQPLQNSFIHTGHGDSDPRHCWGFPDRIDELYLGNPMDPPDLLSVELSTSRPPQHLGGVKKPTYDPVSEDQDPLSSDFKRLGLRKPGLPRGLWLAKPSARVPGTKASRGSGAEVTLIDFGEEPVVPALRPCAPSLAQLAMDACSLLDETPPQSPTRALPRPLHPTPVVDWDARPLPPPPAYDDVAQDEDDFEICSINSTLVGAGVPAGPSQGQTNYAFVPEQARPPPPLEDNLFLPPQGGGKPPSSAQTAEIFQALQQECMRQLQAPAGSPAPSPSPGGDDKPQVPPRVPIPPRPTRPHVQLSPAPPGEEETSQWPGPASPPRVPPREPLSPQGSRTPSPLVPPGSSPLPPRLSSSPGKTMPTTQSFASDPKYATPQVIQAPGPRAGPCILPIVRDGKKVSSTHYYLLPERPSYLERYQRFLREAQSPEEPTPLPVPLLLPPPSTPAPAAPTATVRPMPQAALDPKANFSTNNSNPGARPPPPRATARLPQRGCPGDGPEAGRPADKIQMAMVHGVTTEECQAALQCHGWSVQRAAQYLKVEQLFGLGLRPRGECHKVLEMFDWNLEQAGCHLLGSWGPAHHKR

CN1CCN(c2ccc(Nc3ncc(Cl)c(NC[C@H]4CCCO4)n3)cc2)CC1 [(R)-9b]
IC50 [1]: 1.25e-08 M
sensitivity (cell proliferation) [2]: loss of proliferation
sensitivity (cell proliferation) [3]: loss of proliferation
γH2AX staining (DNA damage, double strand breaks) [4]: poor γH2AX staining
remaining after 6 h of treatment ([5]; 6 h): over 96%
fraction unbound ([5]; human, plasma, Plasma Protein Binding (PPB)): 0.17
sensitivity (cell proliferation) [6]: sensitive
sensitivity (cell proliferation) [7]: sensitive
CCNB1, CCNB2 and CDC20 protein abundance [8]: decrease in respective protein abundance
